Experimental data from US11072588B2, “Barbituric acid derivatives comprising cationic and lipophilic groups” (UNIVERSITETET I TROMSØ—NORGES ARKTISKE UNIVERSITET, priority 2017, dated 2021).
Converted amounts (≈) assume the structure as drawn. Where two headings read alike, the source gives them in different places.

Experiments:
[1] = system: E. faecium TUH50-22; assay: MIC, multi-resistant clinical isolate; assay type: cell-based, Enterococcus faecium
Procedure: (§1) Working solutions of the test derivatives were prepared with up to 100% DMSO and stored at −20° C. If necessary, the solutions were heated to 40-80° C. before testing to facilitate complete dissolution. Double-distilled water was used in all dilutions prepared. […] A microdilution susceptibility test was used for MIC determination according to Clinical and Laboratory Standards Institute, “Methods for Dilution Antimicrobial Sisceptibility Tests for Bacteria That Graw Aerobically”, Approved Standard M07-A9, edition 2012, with modifications as described by Igumnova et al (Bioorg Med Chem, 2016, 24 (22), 5884-5894).
(§2) Briefly, the bacterial inoculum was adjusted to approximately 2.5-3×10^4 cells/mL in Mueller-Hinton broth (MHB, Difco Laboratories, USA), and incubated in a ratio of 1:1 with test derivatives in polystyrene 96-well flat-bottom microplates (NUNC, Roskilde, Denmark). Positive growth control (without test derivatives) and negative control (without bacteria) were included. The reference antibiotic was oxytetracycline hydrochloride (Sigma Aldrich, Saint Louis, Mo., USA). The microplates were incubated in an EnVision microplate reader (Perkin-Elmer, Turku, Finland) placed in an incubator set to 35° C. for 48 h. The MIC value was defined as the lowest concentration of derivative resulting in no bacterial growth as determined by OD600 measurement. All derivatives were tested in three parallels.
(§3) The MIC was determined as explained above with some exceptions; working solutions of test derivatives were prepared from concentrated DMSO stocks stored at room temperature, the density of the bacterial inoculum was increased 40× to 1-1.2×10^6 cells/mL, enterococci were incubated in Brain Heart Infusion broth (BHIB, Difco Laboratories, USA), the microplates were incubated for 24 h, and the derivatives were tested in four parallels.

[2] = system: E. faecium 50901530; assay: MIC, multi-resistant clinical isolate; assay type: cell-based, Enterococcus faecium; conditions: for MIC: Enterococcus faecium, read-out: Antimicrobial activity (MIC); for selectivity index (EC50/MIC): RBC EC50 / MIC
Procedure: as §1, §2, §3

[3] = system: E. faecium K36-18; assay: MIC, multi-resistant clinical isolate; assay type: cell-based, Enterococcus faecium; conditions: for MIC: Enterococcus faecium, K3618, read-out: Antimicrobial activity (MIC); for selectivity index (EC50/MIC): RBC EC50 / MIC, E. faecium K36-18
Procedure: as §1, §2, §3

[4] = system: E. faecium 50673722; assay: MIC, multi-resistant clinical isolate; assay type: cell-based, Enterococcus faecium; conditions: for MIC: Enterococcus faecium, read-out: Antimicrobial activity (MIC); for selectivity index (EC50/MIC): RBC EC50 / MIC
Procedure: as §1, §2, §3

[5] = system: E. faecium 50758899; assay: MIC, multi-resistant clinical isolate; assay type: cell-based, Enterococcus faecium; conditions: for MIC: Enterococcus faecium, read-out: Antimicrobial activity (MIC); for selectivity index (EC50/MIC): RBC EC50 / MIC
Procedure: as §1, §2, §3

[6] = system: K. pneumoniae K47-25; assay: MIC, multi-resistant clinical isolate; assay type: cell-based, Klebsiella pneumoniae; conditions: for MIC: Klebsiella pneumoniae, K4725, 24 h, read-out: Antimicrobial activity (MIC); for selectivity index (EC50/MIC): RBC EC50 / MIC
Procedure: as §1, §2, §3

[7] = system: K. pneumoniae 50531633; assay: MIC, multi-resistant clinical isolate; assay type: cell-based, Klebsiella pneumoniae; conditions: K. pneumoniae 50531633, resistant to colistin; for MIC: Klebsiella pneumoniae, 24 h, read-out: Antimicrobial activity (MIC); for selectivity index (EC50/MIC): RBC EC50 / MIC
Procedure: as §1, §2, §3

[8] = system: K. pneumoniae 50625602; assay: MIC, multi-resistant clinical isolate; assay type: cell-based, Klebsiella pneumoniae
Procedure: as §1, §2, §3

[9] = system: K. pneumoniae 50667959; assay: MIC, multi-resistant clinical isolate; assay type: cell-based, Klebsiella pneumoniae; conditions: for MIC: Klebsiella pneumoniae, read-out: Antimicrobial activity (MIC); for selectivity index (EC50/MIC): RBC EC50 / MIC
Procedure: as §1, §2, §3

[10] = system: K. pneumoniae K66-45; assay: MIC, multi-resistant clinical isolate; assay type: cell-based, Klebsiella pneumoniae; conditions: for MIC: Klebsiella pneumoniae, K6645, read-out: Antimicrobial activity (MIC); for selectivity index (EC50/MIC): RBC EC50 / MIC, K. pneumoniae K66-45
Procedure: as §1, §2, §3

[11] = system: P. aeruginosa K44-24; assay: MIC, multi-resistant clinical isolate; assay type: cell-based, Pseudomonas aeruginosa; conditions: for MIC: Pseudomonas aeruginosa, K4424, read-out: Antimicrobial activity (MIC); for selectivity index (EC50/MIC): RBC EC50 / MIC
Procedure: as §1, §2, §3

[12] = system: P. aeruginosa K34-73; assay: MIC, multi-resistant clinical isolate; assay type: cell-based, Pseudomonas aeruginosa; conditions: for MIC: Pseudomonas aeruginosa; for selectivity index (EC50/MIC): RBC EC50 / MIC
Procedure: as §1, §2, §3

[13] = system: P. aeruginosa K34-7; assay: MIC, multi-resistant clinical isolate; assay type: cell-based, Pseudomonas aeruginosa; conditions: for MIC: Pseudomonas aeruginosa, K347, read-out: Antimicrobial activity (MIC); for selectivity index (EC50/MIC): RBC EC50 / MIC, P. aeruginosa K34-7
Procedure: as §1, §2, §3

[14] = system: P. aeruginosa 50692520; assay: MIC, multi-resistant clinical isolate; assay type: cell-based, Pseudomonas aeruginosa; conditions: for MIC: Pseudomonas aeruginosa, read-out: Antimicrobial activity (MIC); for selectivity index (EC50/MIC): RBC EC50 / MIC
Procedure: as §1, §2, §3

[15] = system: P. aeruginosa 50692172; assay: MIC, multi-resistant clinical isolate; assay type: cell-based, Pseudomonas aeruginosa; conditions: for MIC: Pseudomonas aeruginosa, read-out: Antimicrobial activity (MIC); for selectivity index (EC50/MIC): RBC EC50 / MIC
Procedure: as §1, §2, §3

[16] = system: Escherichia coli ATCC 25922; assay: MIC assay, antibiotic susceptible reference strain; assay type: cell-based; conditions: Escherichia coli, ATCC25922, read-out: Antimicrobial activity (MIC) E. c
Procedure: as §1, §2

[17] = system: Pseudomonas aeruginosa PA01, DSM 19880 (ATCC 15692); assay: MIC assay, antibiotic susceptible reference strain; assay type: cell-based; conditions: Pseudomonas aeruginosa, read-out: Antimicrobial activity (MIC) P. a
Procedure: as §1, §2

[18] = system: Staphylococcus aureus ATCC 9144; assay: MIC assay, antibiotic susceptible reference strain; assay type: cell-based; conditions: Staphylococcus aureus, ATCC9144, read-out: Antimicrobial activity (MIC) S. a
Procedure: as §1, §2

[19] = system: E. coli 50676002; assay: MIC, multi-resistant clinical isolate; assay type: cell-based, Escherichia coli; conditions: for selectivity index (EC50/MIC): RBC EC50 / MIC
[20] = system: E. coli 50857972; assay: MIC, multi-resistant clinical isolate; assay type: cell-based, Escherichia coli; conditions: for MIC: Escherichia coli, read-out: Antimicrobial activity (MIC); for selectivity index (EC50/MIC): RBC EC50 / MIC
[21] = system: E. coli 50639799; assay: MIC, multi-resistant clinical isolate; assay type: cell-based, Escherichia coli; conditions: for MIC: Escherichia coli, read-out: Antimicrobial activity (MIC); for selectivity index (EC50/MIC): RBC EC50 / MIC
[22] = system: E. coli 50579417; assay: MIC, multi-resistant clinical isolate; assay type: cell-based, Escherichia coli; conditions: for MIC: Escherichia coli, read-out: Antimicrobial activity (MIC); for selectivity index (EC50/MIC): RBC EC50 / MIC
[23] = system: panel of 30 multi-resistant clinical isolates of Gram-positive and Gram-negative bacteria; assay: MIC screening, ranges over the panel of clinical isolates; assay type: cell-based; conditions: read-out: MIC values against S. aurues, E. faecium and E. coli
Procedure: as §1, §2, §3

[24] = K. pneumoniae K47-25, resistant to colistin

CC(C)(C)c1cc(CC2(Cc3cc(C(C)(C)C)cc(C(C)(C)C)c3)C(=O)N(CCCCNC(=N)N)C(=O)N(CCCCNC(=N)N)C2=O)cc(C(C)(C)C)c1 [8(iii), 1,1′-(4,4′-(5,5-bis(3,5-di-tert-butylbenzyl)-2,4,6-trioxodihydropyrimidine-1,3(2H,4H)-diyl)bis(butane-4,1-diyl))-diguanidine]
MIC ([1]; Enterococcus faecium, TUH5022, read-out: Antimicrobial activity (MIC)): 2 µg/mL (≈ 2.63 µM)
selectivity index (EC50/MIC) ([1]; RBC EC50 / MIC): (<2)
MIC [2]: 2 µg/mL (≈ 2.63 µM)
selectivity index (EC50/MIC) [2]: (<2)
MIC [3]: 2 µg/mL (≈ 2.63 µM)
selectivity index (EC50/MIC) [3]: (<2)
MIC [4]: 2 µg/mL (≈ 2.63 µM)
selectivity index (EC50/MIC) [4]: (<2)
MIC [5]: 2 µg/mL (≈ 2.63 µM)
selectivity index (EC50/MIC) [5]: (<2)
MIC [6, 24]: 16 µg/mL (≈ 21.1 µM)
selectivity index (EC50/MIC) [6, 24]: (<0.25)
MIC [7]: 16 µg/mL (≈ 21.1 µM)
selectivity index (EC50/MIC) [7]: (<0.25)
MIC ([8]; Klebsiella pneumoniae, read-out: Antimicrobial activity (MIC)): 16 µg/mL (≈ 21.1 µM)
selectivity index (EC50/MIC) ([8]; RBC EC50 / MIC): (<0.25)
MIC [9]: 8 µg/mL (≈ 10.5 µM)
selectivity index (EC50/MIC) [9]: (<0.5)
MIC [10]: 8 µg/mL (≈ 10.5 µM)
selectivity index (EC50/MIC) [10]: (<0.5)
MIC [11]: 16 µg/mL (≈ 21.1 µM)
selectivity index (EC50/MIC) [11]: (<0.25)
MIC ([12]; K3473, P. aeruginosa K34-73, read-out: Antimicrobial activity (MIC)): 8 µg/mL (≈ 10.5 µM)
selectivity index (EC50/MIC) ([12]; P. aeruginosa K34-73): (<0.5)
MIC [13]: 16 µg/mL (≈ 21.1 µM)
selectivity index (EC50/MIC) [13]: (<0.25)
MIC [14]: 16 µg/mL (≈ 21.1 µM)
selectivity index (EC50/MIC) [14]: (<0.25)
MIC [15]: 16 µg/mL (≈ 21.1 µM)
selectivity index (EC50/MIC) [15]: (<0.25)
MIC [16]: 4 µg/mL (≈ 5.27 µM)
MIC [17]: 4 µg/mL (≈ 5.27 µM)
MIC [18]: 1 µg/mL (≈ 1.32 µM)
MIC ([19]; Escherichia coli, E. coli 50676002, read-out: Antimicrobial activity (MIC)): 16 µg/mL (≈ 21.1 µM)
selectivity index (EC50/MIC) ([19]; E. coli 50676002): (<0.25)
MIC [20]: 8 µg/mL (≈ 10.5 µM)
selectivity index (EC50/MIC) [20]: (<0.5)
MIC [21]: 8 µg/mL (≈ 10.5 µM)
selectivity index (EC50/MIC) [21]: (<0.5)
MIC [22]: 16 µg/mL (≈ 21.1 µM)
selectivity index (EC50/MIC) [22]: (<0.25)

NCCCCN1C(=O)N(CCCCN)C(=O)C(Cc2cc(Br)cc(Br)c2)(Cc2cc(Br)cc(Br)c2)C1=O [7(ii)]
MIC [2]: 4 µg/mL (≈ 5.22 µM)
selectivity index (EC50/MIC) [2]: (21)
MIC [3]: 8 µg/mL (≈ 10.4 µM)
selectivity index (EC50/MIC) [3]: (10)
MIC [4]: 4 µg/mL (≈ 5.22 µM)
selectivity index (EC50/MIC) [4]: (21)
MIC [5]: 4 µg/mL (≈ 5.22 µM)
selectivity index (EC50/MIC) [5]: (21)
MIC [23]: 4 to 8 µg/mL (≈ 5.22 to 10.4 µM)
MIC [6]: 16 µg/mL (≈ 20.9 µM)
selectivity index (EC50/MIC) [6, 24]: (5)
MIC [7]: 8 µg/mL (≈ 10.4 µM)
selectivity index (EC50/MIC) [7]: (10)
MIC [9]: 16 µg/mL (≈ 20.9 µM)
selectivity index (EC50/MIC) [9]: (5)
MIC [10]: 16 µg/mL (≈ 20.9 µM)
selectivity index (EC50/MIC) [10]: (5)
MIC [11]: 16 µg/mL (≈ 20.9 µM)
selectivity index (EC50/MIC) [11]: (5)
MIC ([12]; K3473, read-out: Antimicrobial activity (MIC)): 16 µg/mL (≈ 20.9 µM)
selectivity index (EC50/MIC) ([12]; P. aeruginosa K34-73): (5)
MIC [13]: 16 µg/mL (≈ 20.9 µM)
selectivity index (EC50/MIC) [13]: (5)
MIC [14]: 16 µg/mL (≈ 20.9 µM)
selectivity index (EC50/MIC) [14]: (5)
MIC [15]: 16 µg/mL (≈ 20.9 µM)
selectivity index (EC50/MIC) [15]: (5)
MIC [16]: 4 µg/mL (≈ 5.22 µM)
MIC [17]: 8 µg/mL (≈ 10.4 µM)
MIC [18]: 4 µg/mL (≈ 5.22 µM)
MIC ([19]; Escherichia coli, 50676002, read-out: Antimicrobial activity (MIC)): 8 µg/mL (≈ 10.4 µM)
selectivity index (EC50/MIC) ([19]; E. coli 50676002): (10)
MIC [20]: 8 µg/mL (≈ 10.4 µM)
selectivity index (EC50/MIC) [20]: (10)
MIC [21]: 8 µg/mL (≈ 10.4 µM)
selectivity index (EC50/MIC) [21]: (10)
MIC [22]: 8 µg/mL (≈ 10.4 µM)
selectivity index (EC50/MIC) [22]: (10)
